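Interpolation was linear, between the two tested concentrations surrounding the appropriate level; five concentrations were tested over 48 hours in 96-well plates. At the TGI there is no net growth.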
Legend:
Assay in all cases: DTP human tumour cell line panel, 48 h
[1] = test system: K-562 leukemia
[2] = test system: NCI-H460 lung
[3] = test system: OVCAR-3 ovarian
[4] = test system: SF-268 CNS
[5] = test system: SF-539 CNS
[6] = test system: SK-MEL-28 melanoma
[7] = test system: HOP-62 NSCLC
[8] = test system: MALME-3M melanoma
[9] = test system: OVCAR-5 ovarian
[10] = test system: SR leukemia

Compound	TGI [1] [µM]	TGI [2] [µM]	TGI [3] [µM]	TGI [4] [µM]	TGI [5] [µM]	TGI [6] [µM]	TGI [7] [µM]	TGI [8] [µM]	TGI [9] [µM]	TGI [10] [µM]
COc1ccc(/C=N/N=C(N)N)c(C(=O)O)c1OC	> 100	> 100	> 100	> 100	> 100	> 100				
CN(C)c1ccc(C(=C2C=CC(=[N+](C)C)C=C2)c2c(O)c(S(=O)(=O)[O-])cc3cc(S(=O)(=O)O)ccc23)cc1	> 100	> 100	> 100	> 100	> 100	> 100	> 100	> 100	> 100	> 100
Brc1ccc2c(c1)[C@H]1CCc3c([nH]c4ccccc34)[C@H]1N2	39.8	24.8	25.3	32.4	16.4	27	25.6	22.8	27	33.1
CCCCc1ccc(Nc2nc(N)c3[nH]cnc3n2)cc1	> 100	52.2	51.9	32.8	43.4	44.1		38.1	73.5	
CC(C)=CCC[C@@H](C)c1c(O)c(O)c(C)c2nc3ccccc3nc12	> 32.5	32.4	3.28	7.22	6.71	23.8	8.48	7.53	17.6	> 100
O=c1[nH]/c(=C/c2cccs2)c(=O)[nH]/c1=C/c1ccc(OCc2ccccc2)cn1	27.4	3.46	0.0382	> 36.3	12.5	> 100	8.47	0.726	> 69.5	0.587
O=C1NC(N2CCOCC2)=N/C1=C\c1ccccc1			> 100	> 100	> 100	> 100	> 100	> 100	> 100	> 100
CC1CN=C(c2ccc3c(c2)Cc2cc(C4=NCC(C)N4)ccc2-3)N1 (stereo not drawn)	> 100	86.8	53.7	77.7		> 100	> 100	46	> 100	> 100
CO/C=C(/C(=O)OC)c1ccccc1[C@H]1C[C@@H]1c1ccc(OC)cc1	> 100	83	49	86.3	38	52.2	98	46.8	> 100	45.4
O=C1CCCc2ccc3c(c21)CC1(Cc2cc4c(cc2C1)CCCC4)C3	25.1	74.5	40.3	77.1	48.7	63.7	57.1	35.8	72.3	31.5
CC12CCC3=C(CSC4=C3CSc3ccccc34)C1=CCCC2=O (stereo not drawn)	> 100	> 100	> 100	> 100	> 100	> 100	> 100	> 100	> 100	> 100
Cc1cc(S(=O)(=O)Nc2nc(N)n(-c3ccccc3)n2)c(S)cc1Cl	> 100	> 100	> 100	> 100	> 100	> 100	> 100	> 100	> 100	> 100
COC(=O)[C@@]12CC3CN(Cc4c1[nH]c1ccccc41)C2CC3=O	> 100	> 100	> 100	> 100	> 100	> 100	> 100	> 100	> 100	
O=C(O)CC(Cc1ccccc1)C(=O)O (stereo not drawn)	> 100	> 100	> 100	> 100	> 100	> 100	> 100	> 100	> 100	
COc1c2c(cc3oc(=O)ccc13)OC(C)(C)C=C2	> 125	62.2	> 125	> 125	> 125	75.9	> 125	87.8		44.6
O=c1[nH]nc(Nc2ccccc2)c2nnn(Cc3ccccc3)c12	> 100	> 100		> 100	> 100	> 100	24		> 100	> 100
Cc1cc2nc(N)n[n+]([O-])c2cc1C	> 100			> 100	> 100	> 100	> 100	> 100	> 100	> 100
C=CCCCN1C(=O)C2C3c4ccccc4C(C=O)(c4ccccc43)C2C1=O (stereo not drawn)	17.8	30.3	23.4	59		31.9	28.2	26.4	45.1	18.1
COc1cc(C(C)(C)C)c(OC(=O)/C=C/C(=O)O/C=C/[N+](=O)[O-])c(C(C)(C)C)c1	> 100	> 100	> 100	75.7	> 100		> 100		> 100	> 100
NCCCCN(CCCN)C(=O)OCc1ccccc1	> 100	> 100	> 100	> 100	> 100	> 100	> 100		> 100	> 100
Cc1ccc(N=c2oc3c(ccc4ccccc43)nc2Nc2ccc(C)cc2)cc1	> 100	> 100		> 100	> 100	> 100	> 100	> 100	> 100	> 100
COc1c(Cl)ccc(Cl)c1-c1nnc(-c2c(Cl)c(Cl)c(Cl)c(Cl)c2-c2nc3ccc(C(=O)c4ccccc4)cc3[nH]2)o1	> 100		> 100	> 100	54	> 100	> 100	> 100	> 100	> 100

Reference: PubChem BioAssay (NCI)
